Data reported in EP2787958B1, “CHELIDONIUM MAJUS EXTRACTS AND THEIR USE IN THE TREATMENT OF SKIN DISORDERS AND PROMOTION OF SKIN REGENERATION” (priority 2011, dated 2013).
Where two headings read alike, the source gives them in different places.

Tests used:
interleukin 1β (IL-1β) = assay: Inflammatory cytokines in cell supernatant (Mosaic ELISA microarray): IL-1β; assay type: cell-based, Human; conditions: for IL-1β ng/(ml* No. of cells from photo) ± SD: 24 hours
interleukin 6 (IL-6) = assay: Inflammatory cytokines in cell supernatant (Mosaic ELISA microarray): IL-6; assay type: cell-based, Human; conditions: for IL-6 ng/(ml* No. of cells from photo) ± SD: 24 hours
HDF cells [1] = assay: Evaluation of cell morphology (Sirius Red stained cells, microscopy); assay type: cell-based, Human
Procedure: Their morphology, colour and shape have been evaluated by using the ImageJ software program.
The results of the effects on cell morphology, produced by the treatment with the test compounds for 24 hours at the concentrations specified, in HDF cells stained for collagen with PSR are shown in Figures 4a-d, 5a-d and 6a-f. These Figures allow evaluating cell morphology through light microscopy observation at magnifications of 100x, 200x and 400x for HDF cells cultured under standard growth conditions, in the presence of 100 µM H2O2 and in the presence of 34 ng/ml TGF-β1.

[2] = Anti-radical activity (decay of the DPPH radical); assay type: biochemical; conditions: for Anti-radical (skin protective): 24 hours
Outline: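 Test substance in ethanol mixed 1:1 with 200 µM DPPH (stock concentrations), in quadruplicate. Absorbance read at 530 nm after 30 min, with vitamin C and ethanol-only controls. IC50 from variable-slope Hill regression of dose-activity curves.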

HDF cells [3] = assay: Summary of uses and toxic effects deduced from the cell assays (Table 1); assay type: cell-based, Human; conditions: for Anti-fibrotic (prevention of scar formation, also from acne) / Cytoprotective (antioxidant, anti-inflammatory and anti-ageing; useful also in the treatment of acne) / Cytotoxic / Irritant / Wound-healing: 24 hours
Outline: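 HDF cells exposed to test substances at a given dosage for 24 h; uses and toxicity inferred from free-radical scavenging, mitochondrial dehydrogenase activity, IL-1β/IL-6 production (basal or induced by 100 µM H2O2), proliferation under standard growth conditions, and senescence-like morphology.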

[4] = test system: collagen produced by HDF cells; assay: Quantity of collagen produced by the cells (elution of Sirius Red)
[5] = test system: Human dermal fibroblasts (HDF); assay: Mitochondrial dehydrogenase activity (WST-1 formazan assay) in HDF cells; conditions: for mitochondrial dehydrogenase activity (effect in words): 1 µM; for Revitalizing agent: 24 hours; for activity at 1 µM / activity at 10 µM: Homo sapiens, Fibroblast, read-out: % mitochondrial dehydrogenase activity ± SD
HDF cells [6] = assay: Evaluation of cell proliferation (counting of Sirius Red stained cells in photographs); conditions: for No. of cells from photo ± SD: 24 hours
[7] = Dose 1 µm (coptisine: 1 pm [sic])

Compound: CN1Cc2c(ccc3c2OCO3)[C@@H]2[C@H]1c1cc3c(cc1C[C@@H]2O)OCO3 [chelidonine]
- IL-1β production (effect in words) (interleukin 1β (IL-1β); 1 µM, 34 ng/ml TGF-β1): antagonizes the production of IL-1β
- IL-1β ng/(ml* No. of cells from photo) ± SD (interleukin 1β (IL-1β); 1 µM, 34 ng/ml TGF-β1): 127±26 ng/(ml* No. of cells from photo)
- IL-1β production (effect in words) (interleukin 1β (IL-1β); 1 µM, 100 µM H2O2): antagonizes the production of IL-1β
- IL-1β ng/(ml* No. of cells from photo) ± SD (interleukin 1β (IL-1β); 1 µM, 100 µM H2O2): 115±8 ng/(ml* No. of cells from photo)
- IL-1β ng/(ml* No. of cells from photo) ± SD (interleukin 1β (IL-1β); 1 µM, Standard conditions): 666±30 ng/(ml* No. of cells from photo)
- IL-1β production (effect in words) (interleukin 1β (IL-1β); 1 µM, standard conditions): inhibits the production of IL-1β
- IL-1β production (effect in words) (interleukin 1β (IL-1β); 10 µM, 34 ng/ml TGF-β1): stimulates IL-1β production
- IL-1β ng/(ml* No. of cells from photo) ± SD (interleukin 1β (IL-1β); 10 µM, 34 ng/ml TGF-β1): 363±27 ng/(ml* No. of cells from photo)
- IL-1β production (effect in words) (interleukin 1β (IL-1β); 10 µM, 100 µM H2O2): stimulates IL-1β production
- IL-1β ng/(ml* No. of cells from photo) ± SD (interleukin 1β (IL-1β); 10 µM, 100 µM H2O2): 366±35 ng/(ml* No. of cells from photo)
- IL-1β ng/(ml* No. of cells from photo) ± SD (interleukin 1β (IL-1β); 10 µM, Standard conditions): 17500±700 ng/(ml* No. of cells from photo)
- IL-1β production (effect in words) (interleukin 1β (IL-1β); 10 µM, standard conditions): stimulates IL-1β production
- IL-6 production (effect in words) (interleukin 6 (IL-6); 1 µM, 34 ng/ml TGF-β1): antagonizes the production of IL-6
- IL-6 ng/(ml* No. of cells from photo) ± SD (interleukin 6 (IL-6); 1 µM, 34 ng/ml TGF-β1): 620±72 ng/(ml* No. of cells from photo)
- IL-6 production (effect in words) (interleukin 6 (IL-6); 1 µM, 100 µM H2O2): antagonizes the production of IL-6
- IL-6 ng/(ml* No. of cells from photo) ± SD (interleukin 6 (IL-6); 1 µM, 100 µM H2O2): 697±87 ng/(ml* No. of cells from photo)
- IL-6 ng/(ml* No. of cells from photo) ± SD (interleukin 6 (IL-6); 1 µM, Standard conditions): 2883±553 ng/(ml* No. of cells from photo)
- IL-6 production (effect in words) (interleukin 6 (IL-6); 1 µM, standard conditions): inhibits the production of IL-6
- IL-6 production (effect in words) (interleukin 6 (IL-6); 10 µM, 34 ng/ml TGF-β1): stimulates IL-6 production
- IL-6 ng/(ml* No. of cells from photo) ± SD (interleukin 6 (IL-6); 10 µM, 34 ng/ml TGF-β1): 1231±76 ng/(ml* No. of cells from photo)
- IL-6 production (effect in words) (interleukin 6 (IL-6); 10 µM, 100 µM H2O2): stimulates IL-6 production
- IL-6 ng/(ml* No. of cells from photo) ± SD (interleukin 6 (IL-6); 10 µM, 100 µM H2O2): 1990±32 ng/(ml* No. of cells from photo)
- IL-6 ng/(ml* No. of cells from photo) ± SD (interleukin 6 (IL-6); 10 µM, Standard conditions): 38100±8300 ng/(ml* No. of cells from photo)
- IL-6 production (effect in words) (interleukin 6 (IL-6); 10 µM, standard conditions): stimulates IL-6 production
- cell morphology (HDF cells [1]; 1 µM): No changes in cell morphology
- cell morphology (HDF cells [1]; 10 µM): Very obvious changes in cell morphology
- % DPPH activity ([2]; 1 mM, 30 minutes): 98%
- Anti-radical (skin protective) [2, 7]: No
- Anti-radical (skin protective) ([2]; Dose 10 µm): No
- Anti-fibrotic (prevention of scar formation, also from acne) (HDF cells [3]; [7]): Yes (↓collagen, ↓IL-6, ↓IL-1β)
- Cytoprotective (antioxidant, anti-inflammatory and anti-ageing; useful also in the treatment of acne) (HDF cells [3]; [7]): Yes (↓IL-6, ↓IL-1β)
- Cytotoxic (HDF cells [3]; [7]): No
- Irritant (HDF cells [3]; [7]): No
- Wound-healing (HDF cells [3]; [7]): Yes (↓IL-1β)
- Anti-fibrotic (prevention of scar formation, also from acne) (HDF cells [3]; Dose 10 µm): No
- Cytoprotective (antioxidant, anti-inflammatory and anti-ageing; useful also in the treatment of acne) (HDF cells [3]; Dose 10 µm): No
- Cytotoxic (HDF cells [3]; Dose 10 µm): Yes (senescent morph., ↓dehydrogenase)
- Irritant (HDF cells [3]; Dose 10 µm): Yes (↑IL-6, ↑IL-1β)
- Wound-healing (HDF cells [3]; Dose 10 µm): No
- concentrations at which no toxic (cytotoxic and irritant) effects are shown (HDF cells [3]; exposure for 24 hours): less than or equal to 1 µM
- collagen production (effect in words) ([4]; 1 µM, 34 ng/ml TGF-β1): tendency to antagonize collagen stimulation induced by TGF-β1
- collagen production (effect in words) ([4]; 1 µM, 100 µM H2O2): tendency to inhibit collagen production
- collagen production (effect in words) ([4]; 1 µM, standard conditions): no evident ability to modulate collagen production
- collagen production (effect in words) ([4]; 10 µM, 34 ng/ml TGF-β1): stimulates collagen production
- collagen production (effect in words) ([4]; 10 µM, 100 µM H2O2): stimulates collagen production
- collagen production (effect in words) ([4]; 10 µM, standard conditions): stimulates collagen production
- concentrations below which no significant effects on mitochondrial dehydrogenase activity are shown [5]: less than 0.1 µM
- mitochondrial dehydrogenase activity (effect in words) ([5]; 18 h): absence of effects
- mitochondrial dehydrogenase activity (effect in words) ([5]; increased exposure time): significant inhibition of mitochondrial dehydrogenase activity
- Revitalizing agent [5, 7]: No
- Revitalizing agent ([5]; Dose 10 µm): No
- activity at 1 µM ([5]; 18 h): 105 ± 7.05%
- activity at 10 µM ([5]; 18 h): 89.3 ± 6.9%
- activity at 1 µM ([5]; 42 h): 64.7 ± 5.88%
- activity at 10 µM ([5]; 42 h): 30.3 ± 2.97%
- inhibitory power toward the mitochondrial dehydrogenase activity ([5]; skin fibroblast cells and/or keratinocytes): marked inhibitory power
- cell proliferation (effect in words) (HDF cells [6]; 1 µM): no evident ability to modulate cell proliferation
- No. of cells from photo ± SD (HDF cells [6]; 1 µM, 34 ng/ml TGF-β1): 184±25
- No. of cells from photo ± SD (HDF cells [6]; 1 µM, 100 µM H2O2): 189±37
- No. of cells from photo ± SD (HDF cells [6]; 1 µM, Standard conditions): 202±21
- cell proliferation (effect in words) (HDF cells [6]; 10 µM): marked inhibition of proliferation
- No. of cells from photo ± SD (HDF cells [6]; 10 µM, 100 µM H2O2): 101±4
- No. of cells from photo ± SD (HDF cells [6]; 10 µM, Standard conditions): 109±16
